According to article PMC9669442, “Discovery of novel inhibitors targeting nematode chitinase CeCht1: Virtual screening, biological evaluation, and molecular dynamics simulation” (Frontiers in Chemistry, 2022):

These molecules were tested against T1, CeCht1 (CeCht1-CAD) (Caenorhabditis elegans, UniProt Q11174) (assay: end-point fluorescence assay, 4-methylumbelliferone release). Details: not given.
T1 construct: gene cht-1; secreted/overexpressed in Pichia pastoris GS115, purified as in Chen Q. et al. 2021; catalytic residues Asp175, Asp177, Glu179
T1 sequence (Q11174 52-431): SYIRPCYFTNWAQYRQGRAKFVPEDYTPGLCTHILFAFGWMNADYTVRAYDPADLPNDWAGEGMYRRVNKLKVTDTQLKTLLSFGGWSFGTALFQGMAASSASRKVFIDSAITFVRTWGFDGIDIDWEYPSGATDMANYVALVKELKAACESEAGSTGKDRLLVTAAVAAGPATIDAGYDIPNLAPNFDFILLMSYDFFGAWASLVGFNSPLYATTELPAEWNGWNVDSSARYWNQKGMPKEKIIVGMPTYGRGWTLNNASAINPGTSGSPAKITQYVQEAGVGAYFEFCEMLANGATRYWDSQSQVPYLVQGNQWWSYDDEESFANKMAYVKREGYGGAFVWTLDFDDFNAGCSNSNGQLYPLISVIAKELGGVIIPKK
Type: biochemical
Description: end-point fluorescence assay, 4-methylumbelliferone release on CeCht1 (CeCht1-CAD)

Row | IC50 | Compound
1 | 10 ± 2.6 µM | COc1ccc2cc(C(C)NC(=O)Cn3nnnc3CN3CCCC3)ccc2c1 (stereo not shown) [HAU-7]
2 | 4.2 ± 0.5 µM | CCn1c(=N)c(C(=O)NCCc2ccc(OC)cc2)cc2c(=O)n3cccc(C)c3nc21 [HAU-4, 1-ethyl-3-((4-methoxyphenethyl)carbamoyl)-10-methyl-5-oxo-1,5-dihydro-2H-dipyrido [1,2-a:2′,3′-d] pyrimidin-2-iminium]

Same assay, conditions: 4 μM 4-MU-(GlcNAc)2, 10 nM enzyme, 20 mM sodium phosphate pH 6.0, 1% DMSO, 25 °C, 20 min

Row | Inhibition rate at 10 μM (%) | Compound
3 | 30.4 ± 2.5% | Cc1ccc(OCc2cc(=O)n3c4c(sc3n2)CCCC4)c(NC(=O)CC(C)C)c1 [HAU-1]
4 | 34.9 ± 1.6% | CCOc1cccc(CNC2CC(C)(C)Cc3c2cnn3-c2ccc(C)cc2)c1O (stereo not shown) [HAU-11]
5 | 2.0 ± 0.8% | CCOc1ccc2ccccc2c1/C=N/NC(=O)CNC(=O)c1ccc2c(c1)OCCO2 [HAU-15]
6 | 39.4 ± 3.3% | COc1ccc(OC)c(-c2nc(C(=O)NCC3CCCO3)cc3c2[nH]c2ccccc23)c1 (stereo not shown) [HAU-9]
7 | 0.4 ± 0.2% | Cc1ccc2nc(SCc3noc(CCC(=O)Nc4ccc(C)c(C)c4)n3)[nH]c2c1 [HAU-3]
